According to patent US9399649B2, “Compounds for treating spinal muscular atrophy” (PTC Therapeutics Inc., priority 2012, dated 2016):

Experiments:
[1] = test system: Smn protein; test: Smn protein assay in tissues of adult C/C-allele SMA mice; assay type: in vivo; settings: 10 mg/kg BID orally for 10 days, brain, spinal cord, muscle and liver, relative to vehicle group, FIG. 11
Protocol: This Smn protein assay compares tissues from test compound treated mice with those from DMSO vehicle treated mice to determine the increase in levels of Smn protein produced from the human SMN2 gene.
The tissue samples in Safe-Lock tubes are weighed and the volume of RIPA buffer containing the protease inhibitor cocktail is added based on the weight to volume ratios for each type of tissue: Brain (50 mgmL), Muscle (50 mgmL) and Spinal Cord (25 mgmL).
Tissues are homogenized using the TissueLyzer by bead milling. 5 mm stainless steel beads are added to the sample and shaken vigorously for 5 minutes at 30 Hz in the TissueLyzer. […] Fluorescence for each well of the plate at 665 nm and 620 nm is measured on an EnVision multilabel plate reader (Perkin-Elmer). The total protein in the tissue homogenate is measured using the BCA assay according to the manufacturer's protocol.
The normalized fluorescence signal is calculated for each sample, Blank and vehicle control well by dividing the signal at 665 nm by the signal at 620 nm. Normalizing the signal accounts for possible fluorescence quenching due to the matrix effect of the tissue homogenate. […] The ΔF value for each tissue sample well is divided by the total protein quantity (determined using the BCA assay) for that tissue sample. […]

[2] = test system: full length and Δ7 SMN2 mRNA; test: SMN2 mRNA RT-qPCR splicing assay in animal tissues; assay type: in vivo; settings: C/C-allele SMA mice, brain and muscle, 10 mg/kg oral BID for 10 days, FIG. 6
Protocol: The reverse transcription-quantitative PCR-based (RT-qPCR) assay is used to quantify the levels of the full length and Δ7 SMN2 mRNA in tissues from mice treated with test compound.
C/C-allele SMA mice are treated by oral gavage two times per day (BID) for 10 days with test compounds re-suspended in 0.5% HPMC and 0.1% Tween-80. Tissue samples were collected and snap frozen for RNA purification.
Tissue samples (20-40 mg) are homogenized in QIAzol Lysis Reagent for 2 minutes at 20 Hz in the TissueLyser II using one stainless steel bead. After addition of chloroform, the homogenate is separated into aqueous and organic phases by centrifugation. RNA partitioned to the upper, aqueous phase is extracted and ethanol is added to provide appropriate binding conditions. The sample is then applied to the RNeasy spin column from the RNeasy Mini Kit, where total RNA binds to the membrane. The RNA is eluted in RNase-free water then stored at −20° C. and subsequently analyzed using the TaqMan RT-qPCR on the 7900HT Thermocycler. Total RNA is diluted ten fold and 2.5 μL, of the diluted sample is added to the TaqMan RT-qPCR mixture.
SMN2 spliced products are identified using the following primers and probes in Table 7. Primer SMN FL Forward B (SEQ ID NO. 7) hybridizes to a nucleotide sequence in exons 7 and 8, primer SMN Δ7 Forward B (SEQ ID NO. 8) hybridizes to a nucleotide sequence in exons 6 and 8, primer SMN Reverse B (SEQ ID NO. 9) hybridizes to a nucleotide sequence in exon 8, probe SMN Probe B (SEQ ID NO. 10) hybridizes to a nucleotide sequence in exon 8. These primers and probe hybridize to nucleotide sequences common to human SMN1 and SMN2 mRNA. Since the SMA patient cells used in Example 5 contain only the SMN2 gene, RT-qPCR can quantify only SMN2 full-length and Δ7 mRNA.
The SMN forward and reverse primers are used at final concentrations of 0.4 μM. The SMN probe is used at a final concentration of 0.15 μM. The SMN-GAPDH Mix (10 μL, total volume) is prepared by combining 5 μL of 2×RT-PCR buffer, 0.4 μL of 25×RT-PCR enzyme mix, 0.5 μL of 20×GAPDH primer-probe mix, 1.505 μL of water, 2.5 μL of RNA solution, 0.04 μL of 100 μM forward primer, 0.04 μL of 100 μM reverse primer, and 0.015 μL of 100 μM SMN probe. […]
The increase of SMN2 FL and decrease in SMN2 Δ7 mRNA relative to those in tissues from animals treated with vehicle control are determined from real-time PCR data using a modified ΔΔCt method (as described in Livak and Schmittgen, Methods, 2001, 25:402-8). The amplification efficiency (E) is calculated from the slope of the amplification curve for SMN2 FL, SMN2 Δ7, and GAPDH individually. The abundances of SMN2 FL, SMN2 Δ7, and GAPDH are then calculated as (1+E)^−Ct, where Ct is the threshold value for each amplicon. […]

Structure (SMILES) | total protein normalized Smn level in tissues [1] | SMN2 FL mRNA in tissues [2] | SMN2 Δ7 mRNA in tissues [2]
Cc1cn2cc(-c3cc4ccc(N5CCN(C)CC5)cc4c(=O)o3)nc2c(C)n1 [Cpd 65, 3-(6,8-dimethylimidazo[1,2-a]pyrazin-2-yl)-7-(4-methylpiperazin-1-yl)-1H-isochromen-1-one] | increased in brain, spinal cord, muscle and liver tissues | substantially more SMN2 FL mRNA | less SMN2 Δ7 mRNA
Cc1cn2cc(-c3cc4ccc(N5CCN6CCC[C@H]6C5)cc4c(=O)o3)nc2c(C)n1 [Cpd 69, 3-(6,8-dimethylimidazo[1,2-a]pyrazin-2-yl)-7-[(8aS)-hexahydropyrrolo[1,2-a]pyrazin-2(1H)-yl]-1H-isochromen-1-one] | increased in brain, spinal cord, muscle and liver tissues | substantially more SMN2 FL mRNA | less SMN2 Δ7 mRNA
